Consider 49 compounds from patent US8003649B2 (AstraZeneca AB, priority 2007, dated 2011).

The target of the assay is T1, Androgen Receptor (AR) (Homo sapiens, UniProt P10275, T878A).
T1 construct: cell based immuno-fluorescence assay using the LNCaP prostate epithelial cell line; endogenous in cells; host or cells: LNCaP clone FGC (ATCC CRL-1740)
T1 sequence (P10275 1-920 T878A): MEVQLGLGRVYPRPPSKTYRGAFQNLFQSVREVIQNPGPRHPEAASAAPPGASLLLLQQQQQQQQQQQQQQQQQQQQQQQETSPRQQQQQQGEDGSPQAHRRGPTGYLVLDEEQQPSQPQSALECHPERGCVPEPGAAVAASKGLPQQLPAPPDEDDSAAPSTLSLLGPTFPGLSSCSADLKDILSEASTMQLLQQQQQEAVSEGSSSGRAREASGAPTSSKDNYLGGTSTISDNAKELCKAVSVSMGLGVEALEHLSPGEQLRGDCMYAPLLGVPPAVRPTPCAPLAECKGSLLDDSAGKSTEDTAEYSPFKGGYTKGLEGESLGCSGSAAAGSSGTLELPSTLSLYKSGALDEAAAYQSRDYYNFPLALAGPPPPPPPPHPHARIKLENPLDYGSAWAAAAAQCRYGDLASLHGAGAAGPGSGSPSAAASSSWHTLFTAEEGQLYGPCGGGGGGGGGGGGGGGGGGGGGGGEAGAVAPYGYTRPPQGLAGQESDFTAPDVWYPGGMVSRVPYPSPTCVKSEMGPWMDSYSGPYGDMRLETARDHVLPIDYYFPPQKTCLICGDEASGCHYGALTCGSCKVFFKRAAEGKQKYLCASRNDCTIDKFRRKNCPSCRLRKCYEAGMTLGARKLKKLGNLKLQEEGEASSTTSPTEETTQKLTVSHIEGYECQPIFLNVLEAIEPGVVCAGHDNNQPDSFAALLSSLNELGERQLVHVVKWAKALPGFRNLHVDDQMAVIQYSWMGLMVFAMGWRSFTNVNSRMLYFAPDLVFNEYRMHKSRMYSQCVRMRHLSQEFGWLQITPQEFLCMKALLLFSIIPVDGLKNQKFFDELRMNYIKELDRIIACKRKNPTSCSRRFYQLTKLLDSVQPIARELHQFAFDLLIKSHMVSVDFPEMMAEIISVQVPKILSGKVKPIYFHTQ
Description: LNCaP Androgen Receptor Down-regulation Cell Assay (immunofluorescence end point). Format: cell-based. As to conditions: LNCaP prostate carcinoma cells, compound incubation 20-22 hours, 50% reduction of the AR signal; read-out: Androgen Receptor Down-regulation Assay (a) IC50/μM. Put shortly: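 AR loss reported as IC50 from curve fits of fluorescence dose-response data, with AR immunostained and read by laser-scanning cytometry. Compound exposure was 20-22 h at 37° C in LNCaP cells grown in 5% charcoal-stripped FBS and plated overnight beforehand.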
Take `O=C(c1ccc(C2CCN(c3ccc4nnc(C(F)(F)F)n4n3)CC2)cc1)N1CC[C@H](O)C1` [Example 739]: the DC50 stood at 3.2 µM.
Consider `O=C(c1ccc(C2CCN(c3ccc4nnc(C(F)(F)F)n4n3)CC2)cc1)N1CCC(O)CC1` [Example 740], for which the DC50 is 2 µM.
Then `CN(CCS(C)(=O)=O)C(=O)c1ccc(C2CCN(c3ccc4nnc(C(F)(F)F)n4n3)CC2)cc1` [Example 741], with 2.2 µM; and `CN1CCN(C(=O)c2ccc(N3CCN(c4ccc5nnc(C(F)(F)F)n5n4)CC3)cc2)CC1` [Example 744], with 9.6 µM.
On to `COCCNC(=O)c1ccc(N2CCN(c3ccc4nnc(C(F)(F)F)n4n3)CC2)cc1` [Example 745], for which the DC50 turned out to be 3.4 µM.
As to `CN(C)C(=O)c1ccc(N2CCN(c3ccc4nnc(C(F)(F)F)n4n3)CC2)cc1` [Example 746], the DC50 amounted to 3.3 µM.
Then `O=C(c1ccc(N2CCN(c3ccc4nnc(C(F)(F)F)n4n3)CC2)cc1)N1CC[C@@H](O)C1` [Example 747], with 23 µM; and `O=C(c1ccc(N2CCN(c3ccc4nnc(C(F)(F)F)n4n3)CC2)cc1)N1CCCC1` [Example 748], with 5.6 µM; and `O=C(c1ccc(N2CCN(c3ccc4nnc(C(F)(F)F)n4n3)CC2)cc1)N1CCOCC1` [Example 749], with over 22 µM.
To `O=C(NCCN1CCOCC1)c1ccc(N2CCN(c3ccc4nnc(C(F)(F)F)n4n3)CC2)cc1` [Example 750] belongs 2.6 µM; to `COCCN(C)C(=O)c1ccc(N2CCN(c3ccc4nnc(C(F)(F)F)n4n3)CC2)cc1` [Example 751], 6.3 µM; to `CN(CCN1CCCC1=O)C(=O)c1ccc(C2CCN(c3ccc4nnc(C(F)(F)F)n4n3)CC2)cc1` [Example 753, N-methyl-N-[2-(2-oxopyrrolidin-1-yl)ethyl]-4-[1-[3-(trifluoromethyl)[1,2,4]triazolo[4,3-b]pyridazin-6-yl]piperidin-4-yl]benzamide], 2.1 µM.
To `CN(CCN1CCOCC1)C(=O)c1ccc(C2CCN(c3ccc4nnc(C(F)(F)F)n4n3)CC2)cc1` [Example 754, N-methyl-N-(2-morpholin-4-ylethyl)-4-[1-[3-(trifluoromethyl)[1,2,4]triazolo[4,3-b]pyridazin-6-yl]piperidin-4-yl]benzamide] belongs 2.5 µM; to `FC(F)(F)c1nnc2ccc(N3CCN(c4ccc(OCCN5CCCC5)cc4)CC3)nn12` [Example 755], 2.2 µM; to `FC(F)(F)c1nnc2ccc(N3CCN(c4ccc(OCc5ccon5)cc4)CC3)nn12` [Example 757], over 12 µM.
In the case of `Fc1cc(Cl)cc(CN2CCN(c3ccc4nnc(C(F)(F)F)n4n3)CC2)c1` [Example 759], the DC50 worked out at 3.9 µM.
To `Fc1cc(CN2CCN(c3ccc4nnc(C(F)(F)F)n4n3)CC2)cc(C(F)(F)F)c1` [Example 760] belongs over 3.1 µM; to `Fc1cccc(CN2CCN(c3ccc4nnc(C(F)(F)F)n4n3)CC2)c1C(F)(F)F` [Example 761], 1.5 µM; to `Fc1cc(F)c(F)c(CN2CCN(c3ccc4nnc(C(F)(F)F)n4n3)CC2)c1` [Example 763], over 9.8 µM.
`Fc1ccc(F)c(CN2CCN(c3ccc4nnc(C(F)(F)F)n4n3)CC2)c1F` [Example 764]: the DC50 is 2.5 µM.
Turning to `CS(=O)(=O)c1ccc(F)cc1CN1CCN(c2ccc3nnc(C(F)(F)F)n3n2)CC1` [Example 765], the DC50 was 8.8 µM.
To `Fc1ccc(CN2CCN(c3ccc4nnc(C(F)(F)F)n4n3)CC2)c(F)c1F` [Example 766] belongs over 17 µM; to `Fc1cc(CN2CCN(c3ccc4nnc(C(F)(F)F)n4n3)CC2)cc(F)c1F` [Example 767], over 12 µM.
To `Fc1cccc(CN2CCN(c3ccc4nnc(C(F)(F)F)n4n3)CC2)c1Cl` [Example 768] belongs 4.7 µM; to `FC(F)(F)c1nnc2ccc(N3CCN(Cc4cncc(Cl)c4)CC3)nn12` [Example 770], 6.3 µM.
Turning to `FC(F)(F)c1nnc2ccc(N3CCN(Cc4cncc(Br)c4)CC3)nn12` [Example 774], the DC50 is 8 µM.
Consider `COc1ncccc1CN1CCN(c2ccc3nnc(C(F)(F)F)n3n2)CC1` [Example 775], for which the DC50 was found to be 6.8 µM.
Then `Cc1ccc(CN2CCN(c3ccc4nnc(C(F)(F)F)n4n3)CC2)cn1` [Example 776], with 6.9 µM.
To `FC(F)(F)c1ncccc1CN1CCN(c2ccc3nnc(C(F)(F)F)n3n2)CC1` [Example 777] belongs 4.6 µM.
Take `CS(=O)(=O)c1cc(F)cc(CN2CCN(c3ccc4nnc(C(F)(F)F)n4n3)CC2)c1` [Example 778, 6-[4-[3-fluoro-5-(methylsulfonyl)benzyl]piperazin-1-yl]-3-(trifluoromethyl)[1,2,4]triazolo[4,3-b]pyridazine]: the DC50 came out at 2.6 µM.
In the case of `Fc1ccc(C(F)F)c(CN2CCN(c3ccc4nnc(C(F)(F)F)n4n3)CC2)c1` [Example 779, 6-[4-[2-(difluoromethyl)-5-fluorobenzyl]piperazin-1-yl]-3-(trifluoromethyl)[1,2,4]triazolo[4,3-b]pyridazine], the DC50 was found to be 0.54 µM.
Regarding `Fc1ccc(C(F)F)c(CN2CCN(c3ccc4nnc(C(F)F)n4n3)CC2)c1` [Example 780, 3-(difluoromethyl)-6-[4-[2-(difluoromethyl)-5-fluorobenzyl]piperazin-1-yl][1,2,4]triazolo[4,3-b]pyridazine], the DC50 was determined as 0.51 µM.
To `Fc1cccc(CN2CCN(c3ccc4nnc(C(F)(F)F)n4n3)CC2)c1C(F)F` [Example 781, 6-[4-[2-(difluoromethyl)-3-fluorobenzyl]piperazin-1-yl]-3-(trifluoromethyl)[1,2,4]triazolo[4,3-b]pyridazine] belongs 0.82 µM; to `Fc1cccc(CN2CCN(c3ccc4nnc(C(F)F)n4n3)CC2)c1C(F)F` [Example 782, 3-(difluoromethyl)-6-[4-[2-(difluoromethyl)-3-fluorobenzyl]piperazin-1-yl][1,2,4]triazolo[4,3-b]pyridazine], 2 µM.
For the compound `Fc1cc(CN2CCN(c3ccc4nnc(C(F)(F)F)n4n3)CC2)cc(C(F)F)c1` [Example 783, 6-[4-[3-(difluoromethyl)-5-fluorobenzyl]piperazin-1-yl]-3-(trifluoromethyl)[1,2,4]triazolo[4,3-b]pyridazine], the DC50 turned out to be 0.84 µM.
Then `Fc1cc(CN2CCN(c3ccc4nnc(C(F)F)n4n3)CC2)cc(C(F)F)c1` [Example 784, 3-(difluoromethyl)-6-[4-[3-(difluoromethyl)-5-fluorobenzyl]piperazin-1-yl][1,2,4]triazolo[4,3-b]pyridazine], with 2.2 µM; and `Cc1cc(CN2CC3CN(c4ccc5nnc(C(F)(F)F)n5n4)CC3C2)ccn1` (stereo not shown) [Example 785, 6-[5-[(2-methylpyridin-4-yl)methyl]hexahydropyrrolo[3,4-c]pyrrol-2(1H)-yl]-3-(trifluoromethyl)[1,2,4]triazolo[4,3-b]pyridazine], with 1.7 µM; and `FC(F)(F)c1nnc2ccc(N3CC4CN(Cc5ccccn5)CC4C3)nn12` (stereo not shown) [Example 786], with 8.4 µM.
For `COc1ncccc1CN1CC2CN(c3ccc4nnc(C(F)(F)F)n4n3)CC2C1` (stereo not shown) [Example 788], the DC50 was found to be 2.2 µM.
Then `Fc1cncc(CN2CC3CN(c4ccc5nnc(C(F)(F)F)n5n4)CC3C2)c1` (stereo not shown) [Example 789], with 2.1 µM.
As for `FC(F)(F)c1nnc2ccc(N3CC4CN(Cc5cccnc5Cl)CC4C3)nn12` (stereo not shown) [Example 790], the DC50 came to 2 µM.
On to `FC(F)(F)c1nnc2ccc(N3CC4CN(Cc5ccc(Cl)nc5)CC4C3)nn12` (stereo not shown) [Example 791], for which the DC50 worked out at 0.96 µM.
As to `COc1ccc(CN2CC3CN(c4ccc5nnc(C(F)(F)F)n5n4)CC3C2)cn1` (stereo not shown) [Example 793], the DC50 turned out to be 1.6 µM.
To `FC(F)(F)c1nnc2ccc(N3CC4CN(Cc5cncc(Br)c5)CC4C3)nn12` (stereo not shown) [Example 794] belongs 1.1 µM.
Then `Fc1ncc(Br)cc1CN1CC2CN(c3ccc4nnc(C(F)(F)F)n4n3)CC2C1` (stereo not shown) [Example 795], with 2.4 µM; and `FC(F)(F)c1nnc2ccc(N3CC4CN(Cc5cccnc5Br)CC4C3)nn12` (stereo not shown) [Example 796], with 0.63 µM.
Then `COc1cncc(CN2CC3CN(c4ccc5nnc(C(F)(F)F)n5n4)CC3C2)c1` (stereo not shown) [Example 797], with 2.4 µM.
Regarding `FC(F)(F)c1nnc2ccc(N3CC4CN(Cc5ccc(Br)nc5)CC4C3)nn12` (stereo not shown) [Example 798], the DC50 was found to be 1 µM.
Then `Cc1ncccc1CN1CC2CN(c3ccc4nnc(C(F)(F)F)n4n3)CC2C1` (stereo not shown) [Example 799], with 1.6 µM.
